Experiment in all cases: relative viability (nuclei count vs DMSO), 5 days (fraction); higher = more cells survive
Compound in assay [1]: CC(C)(C)c1cc(NC(=O)Nc2ccc(-c3cn4c(n3)sc3cc(OCCN5CCOCC5)ccc34)cc2)no1 [Quizartinib] + CC(=O)c1c(C)c2cnc(Nc3ccc(N4CCNCC4)cn3)nc2n(C2CCCC2)c1=O [Palbociclib] (partner 0.5 µM)
A digest of the protocol: (§1)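 Lung cancer cell lines in 1536-well plates were dosed by pin tool the day after seeding, either with one drug alone or with a fixed anchor-drug dose plus five library-drug doses (not always all listed) in √10 steps. After 5 days, cells were fixed and their nuclei stained in one step (final 0.05% Triton X-100, 1% formaldehyde, 1 ug/ml Hoechst), then counted on 4× images. Relative viability is the nuclei count in treated wells divided by that in vehicle wells. Values are medians of duplicate plates.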

Compound in the assay “Quizartinib + Alpelisib”: CC(C)(C)c1cc(NC(=O)Nc2ccc(-c3cn4c(n3)sc3cc(OCCN5CCOCC5)ccc34)cc2)no1 [Quizartinib] + Cc1nc(NC(=O)N2CCC[C@H]2C(N)=O)sc1-c1ccnc(C(C)(C)C(F)(F)F)c1 [Alpelisib] (partner 2 µM)
A digest of the protocol:
as §1

Compound in the assay “YM155 + Pictilisib”: COCC[n+]1c2c(n(Cc3cnccn3)c1C)C(=O)c1ccccc1C2=O [YM155] + CS(=O)(=O)N1CCN(Cc2cc3nc(-c4cccc5[nH]ncc45)nc(N4CCOCC4)c3s2)CC1 [Pictilisib] (partner 1 µM)
The gist of the method: as §1

Compound in the assay “YM155 + Pemetrexed”: COCC[n+]1c2c(n(Cc3cnccn3)c1C)C(=O)c1ccccc1C2=O [YM155] + Nc1nc2[nH]cc(CCc3ccc(C(=O)N[C@@H](CCC(=O)O)C(=O)O)cc3)c2c(=O)[nH]1 [Pemetrexed] (partner 0.2 µM)
The gist of the method:
as §1

Regarding HCC-15, the relative viability in assay [1] (first compound 0.001 µM) stood at 0.651; in assay [1] (first compound 0.003162 µM), 0.751; in assay [1] (first compound 0.01 µM), 0.72; in assay [1] (first compound 0.03162 µM) it was 0.734; in assay [1] (first compound 0.1 µM), 0.753; with Quizartinib + Alpelisib (first compound 0.001 µM) it was 0.833. Further, the relative viability came out at 0.881 with Quizartinib + Alpelisib (first compound 0.003162 µM); 0.941 with Quizartinib + Alpelisib (first compound 0.01 µM); 0.884 with Quizartinib + Alpelisib (first compound 0.03162 µM); 0.787 in the assay with Quizartinib + Alpelisib (first compound 0.1 µM); 0.612 with YM155 + Pictilisib (first compound 0.002 µM); 0.687 with YM155 + Pictilisib (first compound 0.006325 µM). Also, the relative viability was determined as 0.723 with YM155 + Pictilisib (first compound 0.02 µM); 0.614 with YM155 + Pictilisib (first compound 0.06325 µM); 0.239 with YM155 + Pemetrexed (first compound 0.002 µM); 0.229 in the assay with YM155 + Pemetrexed (first compound 0.006325 µM); 0.23 with YM155 + Pemetrexed (first compound 0.02 µM); 0.242 with YM155 + Pemetrexed (first compound 0.06325 µM).

For the cell line HCC-44, the relative viability in assay [1] (first compound 0.001 µM) is 0.943; in assay [1] (first compound 0.003162 µM) it was 1.04; in assay [1] (first compound 0.01 µM), 0.997; in assay [1] (first compound 0.03162 µM) it was 0.921; in assay [1] (first compound 0.1 µM), 0.949; with Quizartinib + Alpelisib (first compound 0.001 µM), 0.798. Moreover, the relative viability is 0.78 with Quizartinib + Alpelisib (first compound 0.003162 µM); 0.864 in the assay with Quizartinib + Alpelisib (first compound 0.01 µM); 0.825 with Quizartinib + Alpelisib (first compound 0.03162 µM); 0.638 with Quizartinib + Alpelisib (first compound 0.1 µM); 0.565 with YM155 + Pictilisib (first compound 0.002 µM); 0.469 in the assay with YM155 + Pictilisib (first compound 0.006325 µM). Besides, the relative viability came out at 0.674 with YM155 + Pictilisib (first compound 0.02 µM); 0.726 with YM155 + Pictilisib (first compound 0.06325 µM); 0.615 with YM155 + Pemetrexed (first compound 0.002 µM); 0.722 in the assay with YM155 + Pemetrexed (first compound 0.006325 µM); 0.624 with YM155 + Pemetrexed (first compound 0.02 µM); 0.643 with YM155 + Pemetrexed (first compound 0.06325 µM).

Turning to HCC-78, the relative viability worked out at 0.476 in assay [1] (first compound 0.003162 µM); 0.494 in assay [1] (first compound 0.01 µM); 0.404 in assay [1] (first compound 0.03162 µM); 0.453 in assay [1] (first compound 0.1 µM); 0.343 with Quizartinib + Alpelisib (first compound 0.001 µM); 0.33 with Quizartinib + Alpelisib (first compound 0.003162 µM). Also, the relative viability with Quizartinib + Alpelisib (first compound 0.01 µM) worked out at 0.393; with Quizartinib + Alpelisib (first compound 0.03162 µM) it was 0.315; with Quizartinib + Alpelisib (first compound 0.1 µM) it was 0.342; in the assay with YM155 + Pictilisib (first compound 0.002 µM), 0.206; with YM155 + Pictilisib (first compound 0.006325 µM), 0.225; with YM155 + Pictilisib (first compound 0.02 µM), 0.2. Further, the relative viability in the assay with YM155 + Pictilisib (first compound 0.06325 µM) was found to be 0.276; with YM155 + Pemetrexed (first compound 0.002 µM), 0.896; in the assay with YM155 + Pemetrexed (first compound 0.006325 µM), 0.954; with YM155 + Pemetrexed (first compound 0.02 µM) it was 0.935; in the assay with YM155 + Pemetrexed (first compound 0.06325 µM), 0.913.

For the cell line HCC-366, the relative viability in assay [1] (first compound 0.001 µM) came to 0.318; in assay [1] (first compound 0.003162 µM), 0.384; in assay [1] (first compound 0.01 µM) it was 0.374; in assay [1] (first compound 0.03162 µM), 0.382; in assay [1] (first compound 0.1 µM) it was 0.436; with Quizartinib + Alpelisib (first compound 0.001 µM), 0.348. Besides, the relative viability came out at 0.31 with Quizartinib + Alpelisib (first compound 0.003162 µM); 0.448 in the assay with Quizartinib + Alpelisib (first compound 0.01 µM); 0.404 with Quizartinib + Alpelisib (first compound 0.03162 µM); 0.358 with Quizartinib + Alpelisib (first compound 0.1 µM); 0.376 with YM155 + Pictilisib (first compound 0.002 µM); 0.124 in the assay with YM155 + Pictilisib (first compound 0.006325 µM). Also, the relative viability in the assay with YM155 + Pictilisib (first compound 0.02 µM) was 0.125; with YM155 + Pictilisib (first compound 0.06325 µM) it was 0.134; in the assay with YM155 + Pemetrexed (first compound 0.002 µM) it was 0.161; with YM155 + Pemetrexed (first compound 0.006325 µM) it was 0.187; with YM155 + Pemetrexed (first compound 0.02 µM) it was 0.158; in the assay with YM155 + Pemetrexed (first compound 0.06325 µM), 0.165.

The values are drawn from the supplement of paper PMC10307832.
